Counter-ions that a name gives are not always drawn. Like-named read-outs stand apart in the source and are kept apart here.
Experiments:
Experiment in all cases: AK assay 384-well format, Prestwick library screening
[1] = test system: A. baumannii strain 98-37-09; type: cell-based, Acinetobacter baumannii; details: Acinetobacter baumannii, 983709, 3 h, 50 μM final drug concentration
E. faecium = type: cell-based, Enterococcus faecium; details: Enterococcus faecium, 3 h, 50 μM final drug concentration
K. pneumoniae = type: cell-based, Klebsiella pneumoniae; details: Klebsiella pneumoniae, 3 h, 50 μM final drug concentration
E. cloacae = type: cell-based, Enterobacter cloacae; details: Enterobacter cloacae, 3 h, 50 μM final drug concentration
E. coli = type: cell-based, Escherichia coli; details: Escherichia coli, 3 h, 50 μM final drug concentration
[2] = test system: S. aureus strain USA300-0114; type: cell-based, Staphylococcus aureus; details: Staphylococcus aureus, USA300, 3 h, 50 μM final drug concentration
P. aeruginosa = type: cell-based, Pseudomonas aeruginosa; details: Pseudomonas aeruginosa, 3 h, 50 μM final drug concentration
[3] = planktonic, cutoff for positive-scoring molecules 3-fold increase, read-out: AK-based Prestwick Library Screening Results, A. baumannii (fold increase in extracellular AK activity)
[4] = planktonic, cutoff for positive-scoring molecules 3-fold increase, read-out: AK-based Prestwick Library Screening Results, E. faecium (fold increase in extracellular AK activity)
[5] = planktonic, cutoff for positive-scoring molecules 3-fold increase, read-out: AK-based Prestwick Library Screening Results, K. pneumoniae (fold increase in extracellular AK activity)
[6] = planktonic, cutoff for positive-scoring molecules 3-fold increase, read-out: AK-based Prestwick Library Screening Results, E. cloacae (fold increase in extracellular AK activity)
[7] = planktonic, cutoff for positive-scoring molecules 3-fold increase, read-out: AK-based Prestwick Library Screening Results, E. coli (fold increase in extracellular AK activity)
[8] = planktonic, cutoff for positive-scoring molecules 3-fold increase, read-out: AK-based Prestwick Library Screening Results, S. aureus (fold increase in extracellular AK activity)
[9] = planktonic, cutoff for positive-scoring molecules 3-fold increase, read-out: AK-based Prestwick Library Screening Results, P. aeruginosa (fold increase in extracellular AK activity)
[10] = planktonic A. baumannii, cutoff for positive-scoring molecules 3-fold increase, read-out: AK-based Prestwick Library Screening Results, A. baumannii (increase in extracellular AK activity)
[11] = planktonic E. faecium, cutoff for positive-scoring molecules 3-fold increase, read-out: AK-based Prestwick Library Screening Results, E. faecium (increase in extracellular AK activity)
[12] = planktonic K. pneumoniae, cutoff for positive-scoring molecules 3-fold increase, read-out: AK-based Prestwick Library Screening Results, K. pneumoniae (increase in extracellular AK activity)
[13] = planktonic E. cloacae, cutoff for positive-scoring molecules 3-fold increase, read-out: AK-based Prestwick Library Screening Results, E. cloacae (increase in extracellular AK activity)
[14] = planktonic E. coli, cutoff for positive-scoring molecules 3-fold increase, read-out: AK-based Prestwick Library Screening Results, E. coli (increase in extracellular AK activity)
[15] = planktonic S. aureus, cutoff for positive-scoring molecules 3-fold increase, read-out: AK-based Prestwick Library Screening Results, S. aureus (increase in extracellular AK activity)
[16] = planktonic P. aeruginosa, cutoff for positive-scoring molecules 3-fold increase, read-out: AK-based Prestwick Library Screening Results, P. aeruginosa (increase in extracellular AK activity)
[17] = planktonic A. baumannii, 384-well, cutoff for positive-scoring molecules 3-fold increase, read-out: AK-based Prestwick Library Screening Results: A. baumannii (increase in extracellular AK activity)
[18] = planktonic E. faecium, 384-well, cutoff for positive-scoring molecules 3-fold increase, read-out: AK-based Prestwick Library Screening Results: E. faecium (increase in extracellular AK activity)
[19] = planktonic K. pneumoniae, 384-well, cutoff for positive-scoring molecules 3-fold increase, read-out: AK-based Prestwick Library Screening Results: K. pneumoniae (increase in extracellular AK activity)
[20] = planktonic E. cloacae, 384-well, cutoff for positive-scoring molecules 3-fold increase, read-out: AK-based Prestwick Library Screening Results: E. cloacae (increase in extracellular AK activity)
[21] = planktonic E. coli, 384-well, cutoff for positive-scoring molecules 3-fold increase, read-out: AK-based Prestwick Library Screening Results: E. coli (increase in extracellular AK activity)
[22] = planktonic S. aureus, 384-well, cutoff for positive-scoring molecules 3-fold increase, read-out: AK-based Prestwick Library Screening Results: S. aureus (increase in extracellular AK activity)
[23] = planktonic P. aeruginosa, 384-well, cutoff for positive-scoring molecules 3-fold increase, read-out: AK-based Prestwick Library Screening Results: P. aeruginosa (increase in extracellular AK activity)

## Nc1ccc(S(=O)(=O)Nc2cnc3ccccc3n2)cc1 [Sulfaquinoxaline sodium salt]
[1]; [3]
  fold induction at 50 µM: 1
E. faecium; [4]
  fold induction at 50 µM: 0.9
K. pneumoniae; [5]
  fold induction at 50 µM: 0.6
E. cloacae; [6]
  fold induction at 50 µM: 0.8
E. coli; [7]
  fold induction at 50 µM: 0.6
[2]; [8]
  fold induction at 50 µM: 0.7
P. aeruginosa; [9]
  fold induction at 50 µM: 0.6

## O=C(O)c1cc(/N=N/c2ccc(S(=O)(=O)Nc3ccccn3)cc2)ccc1O [Sulfasalazine]
[1]; [10]
  fold induction at 50 µM: 1.1
E. faecium; [11]
  fold induction at 50 µM: 0.9
K. pneumoniae; [12]
  fold induction at 50 µM: 0.7
E. cloacae; [13]
  fold induction at 50 µM: 1.1
E. coli; [14]
  fold induction at 50 µM: 0.8
[2]; [15]
  fold induction at 50 µM: 0.8
P. aeruginosa; [16]
  fold induction at 50 µM: 0.8

## Nc1ccc(S(=O)(=O)Nc2nccs2)cc1 [Sulfathiazole]
[1]; 384-well format, cutoff for positive-scoring molecules 3-fold increase, read-out: AK-based Prestwick Library Screening Results, A. baumannii (increase in extracellular AK activity)
  fold induction at 50 µM: 1
E. faecium; 384-well format, cutoff for positive-scoring molecules 3-fold increase, read-out: AK-based Prestwick Library Screening Results, E. faecium (increase in extracellular AK activity)
  fold induction at 50 µM: 0.9
K. pneumoniae; 384-well format, cutoff for positive-scoring molecules 3-fold increase, read-out: AK-based Prestwick Library Screening Results, K. pneumoniae (increase in extracellular AK activity)
  fold induction at 50 µM: 0.6
E. cloacae; 384-well format, cutoff for positive-scoring molecules 3-fold increase, read-out: AK-based Prestwick Library Screening Results, E. cloacae (increase in extracellular AK activity)
  fold induction at 50 µM: 0.7
E. coli; 384-well format, cutoff for positive-scoring molecules 3-fold increase, read-out: AK-based Prestwick Library Screening Results, E. coli (increase in extracellular AK activity)
  fold induction at 50 µM: 0.7
[2]; 384-well format, cutoff for positive-scoring molecules 3-fold increase, read-out: AK-based Prestwick Library Screening Results, S. aureus (increase in extracellular AK activity)
  fold induction at 50 µM: 0.6
P. aeruginosa; 384-well format, cutoff for positive-scoring molecules 3-fold increase, read-out: AK-based Prestwick Library Screening Results, P. aeruginosa (increase in extracellular AK activity)
  fold induction at 50 µM: 0.6

## O=C1C(CC[S+]([O-])c2ccccc2)C(=O)N(c2ccccc2)N1c1ccccc1 (centres unmarked) [Sulfinpyrazone]
[1]; [17]
  fold induction at 50 µM: 1.2
E. faecium; [18]
  fold induction at 50 µM: 1.1
K. pneumoniae; [19]
  fold induction at 50 µM: 1
E. cloacae; [20]
  fold induction at 50 µM: 1.2
E. coli; [21]
  fold induction at 50 µM: 1.3
[2]; [22]
  fold induction at 50 µM: 3.5
P. aeruginosa; [23]
  fold induction at 50 µM: 1

## Cc1noc(NS(=O)(=O)c2ccc(N)cc2)c1C [Sulfisoxazole]
[1]; [10]
  fold induction at 50 µM: 1
E. faecium; [11]
  fold induction at 50 µM: 0.9
K. pneumoniae; [12]
  fold induction at 50 µM: 0.5
E. cloacae; [13]
  fold induction at 50 µM: 0.7
E. coli; [14]
  fold induction at 50 µM: 0.7
[2]; [15]
  fold induction at 50 µM: 0.5
P. aeruginosa; [16]
  fold induction at 50 µM: 0.6

## CC1=C(CC(=O)O)c2cc(F)ccc2/C1=C\c1ccc([S+](C)[O-])cc1 (centres unmarked) [Sulindac]
[1]; [17]
  fold induction at 50 µM: 1.1
E. faecium; [18]
  fold induction at 50 µM: 0.9
K. pneumoniae; [19]
  fold induction at 50 µM: 1
E. cloacae; [20]
  fold induction at 50 µM: 1.5
E. coli; [21]
  fold induction at 50 µM: 1.1
[2]; [22]
  fold induction at 50 µM: 0.8
P. aeruginosa; [23]
  fold induction at 50 µM: 0.8

## COc1cc([S+](C)[O-])ccc1-c1nc2ncccc2[nH]1 (centres unmarked) [Sulmazole]
[1]; planktonic, cutoff for positive 3-fold increase, read-out: AK-based Prestwick Library Screening Results, A. baumannii (fold increase in extracellular AK activity)
  fold induction at 50 µM: 0.3
E. faecium; planktonic, cutoff for positive 3-fold increase, read-out: AK-based Prestwick Library Screening Results, E. faecium (fold increase in extracellular AK activity)
  fold induction at 50 µM: 0.9
K. pneumoniae; planktonic, cutoff for positive 3-fold increase, read-out: AK-based Prestwick Library Screening Results, K. pneumoniae (fold increase in extracellular AK activity)
  fold induction at 50 µM: 0.5
E. cloacae; planktonic, cutoff for positive 3-fold increase, read-out: AK-based Prestwick Library Screening Results, E. cloacae (fold increase in extracellular AK activity)
  fold induction at 50 µM: 0.3
E. coli; planktonic, cutoff for positive 3-fold increase, read-out: AK-based Prestwick Library Screening Results, E. coli (fold increase in extracellular AK activity)
  fold induction at 50 µM: 0.3
[2]; planktonic, cutoff for positive 3-fold increase, read-out: AK-based Prestwick Library Screening Results, S. aureus (fold increase in extracellular AK activity)
  fold induction at 50 µM: 0.4
P. aeruginosa; planktonic, cutoff for positive 3-fold increase, read-out: AK-based Prestwick Library Screening Results, P. aeruginosa (fold increase in extracellular AK activity)
  fold induction at 50 µM: 0.3

## CCN1CCCC1CNC(=O)c1cc(S(N)(=O)=O)ccc1OC (centres unmarked) [Sulpiride]
[1]; planktonic A. baumannii, 384-well, […], read-out: AK-based Prestwick Library Screening Results: A. baumannii (increase in extracellular AK activity)
  fold induction at 50 µM: 1
E. faecium; planktonic E. faecium, 384-well, […], read-out: AK-based Prestwick Library Screening Results: E. faecium (increase in extracellular AK activity)
  fold induction at 50 µM: 1
K. pneumoniae; planktonic K. pneumoniae, 384-well, […], read-out: AK-based Prestwick Library Screening Results: K. pneumoniae (increase in extracellular AK activity)
  fold induction at 50 µM: 1
E. cloacae; planktonic E. cloacae, 384-well, […], read-out: AK-based Prestwick Library Screening Results: E. cloacae (increase in extracellular AK activity)
  fold induction at 50 µM: 1.6
E. coli; planktonic E. coli, 384-well, […], read-out: AK-based Prestwick Library Screening Results: E. coli (increase in extracellular AK activity)
  fold induction at 50 µM: 1
[2]; planktonic S. aureus, 384-well, […], read-out: AK-based Prestwick Library Screening Results: S. aureus (increase in extracellular AK activity)
  fold induction at 50 µM: 1.1
P. aeruginosa; planktonic P. aeruginosa, 384-well, […], read-out: AK-based Prestwick Library Screening Results: P. aeruginosa (increase in extracellular AK activity)
  fold induction at 50 µM: 1.1

## CC(C(=O)O)c1ccc(C(=O)c2cccs2)cc1 (centres unmarked) [Suprofen]
[1]; [3]
  fold induction at 50 µM: 0.8
E. faecium; [4]
  fold induction at 50 µM: 0.9
K. pneumoniae; [5]
  fold induction at 50 µM: 0.7
E. cloacae; [6]
  fold induction at 50 µM: 0.9
E. coli; [7]
  fold induction at 50 µM: 0.7
[2]; [8]
  fold induction at 50 µM: 0.6
P. aeruginosa; [9]
  fold induction at 50 µM: 0.7

## CCCCC1(COC(=O)CCC(=O)O)C(=O)N(c2ccccc2)N(c2ccccc2)C1=O [Suxibuzone]
[1]; [3]
  fold induction at 50 µM: 0.8
E. faecium; [4]
  fold induction at 50 µM: 0.9
K. pneumoniae; [5]
  fold induction at 50 µM: 0.6
E. cloacae; [6]
  fold induction at 50 µM: 0.8
E. coli; [7]
  fold induction at 50 µM: 0.6
[2]; [8]
  fold induction at 50 µM: 0.6
P. aeruginosa; [9]
  fold induction at 50 µM: 0.6

## CCOC(=O)Oc1c(OC)cc(C(=O)O[C@@H]2C[C@@H]3CN4CCc5c([nH]c6cc(OC)ccc56)[C@H]4C[C@@H]3[C@H](C(=O)OC)[C@H]2OC)cc1OC [Syrosingopine]
[1]; [10]
  fold induction at 50 µM: 0.6
E. faecium; [11]
  fold induction at 50 µM: 0.9
K. pneumoniae; [12]
  fold induction at 50 µM: 0.5
E. cloacae; [13]
  fold induction at 50 µM: 0.6
E. coli; [14]
  fold induction at 50 µM: 0.6
[2]; [15]
  fold induction at 50 µM: 0.3
P. aeruginosa; [16]
  fold induction at 50 µM: 0.5

From US10004701B2, “Methods and compositions for treating infection” (UNIVERSITY OF ROCHESTER, priority 2012, dated 2018)
